This is an account of results in ChEMBL document CHEMBL4387728, “Synthetic glycopeptides reveal specific binding pattern and conformational change at O-mannosylated position of α-dystroglycan by POMGnT1 catalyzed GlcNAc modification” (Bioorg Med Chem, 2019).

Active and inactive are the calls of the source. The rule behind the calls is not given here. Peptide text beside a SMILES is read from it. * marks the point of attachment. X1 = CC(=O)N[C@H]1[C@H](O[C@H]2[C@@H](O)[C@H](O)[C@@H](CO)O[C@@H]2*)O[C@H](CO)[C@@H](O[C@@H]2O[C@H](CO)[C@H](O)[C@H](O[C@]3(C(=O)O)C[C@H](O)[C@@H](NC(C)=O)[C@H]([C@H](O)[C@H](O)CO)O3)[C@H]2O)[C@@H]1O; X2 = CC(=O)N[C@H]1[C@H](O[C@H]2[C@@H](O)[C@H](O)[C@@H](CO)O[C@@H]2*)O[C@H](CO)[C@@H](O[C@@H]2O[C@H](CO)[C@H](O)[C@H](O)[C@H]2O)[C@@H]1O; Hexanoyl(5-oxo) = CC(=O)CCCC(=O)*

Assay [1] in a line: Binding affinity to biotin-labeled Agaricus bisporus agglutinin in pH 7.4 Tris buffer by fluorescence microarray method.
Another assay concerns Triticum aestivum. The assay can be described thus: Binding affinity to biotin-labeled Wheat germ agglutinin in pH 7.4 Tris buffer by fluorescence microarray method.
The species entered for assay [2] is Homo sapiens. The assay can be described thus: Binding affinity to biotin-labeled human recombinant laminin-2 at 10 ug/ml in 5.6 MES buffer by fluorescence microarray method.
Assay [3] deals with Lactotransferrin (Homo sapiens) (UniProt P02788). Description: Binding affinity to biotin-labeled lactoferrin (unknown origin) at 10 ug/ml in pH 7.4 Tris buffer by fluorescence microarray method.
Chain of Lactotransferrin (Homo sapiens) (P02788 whole entry): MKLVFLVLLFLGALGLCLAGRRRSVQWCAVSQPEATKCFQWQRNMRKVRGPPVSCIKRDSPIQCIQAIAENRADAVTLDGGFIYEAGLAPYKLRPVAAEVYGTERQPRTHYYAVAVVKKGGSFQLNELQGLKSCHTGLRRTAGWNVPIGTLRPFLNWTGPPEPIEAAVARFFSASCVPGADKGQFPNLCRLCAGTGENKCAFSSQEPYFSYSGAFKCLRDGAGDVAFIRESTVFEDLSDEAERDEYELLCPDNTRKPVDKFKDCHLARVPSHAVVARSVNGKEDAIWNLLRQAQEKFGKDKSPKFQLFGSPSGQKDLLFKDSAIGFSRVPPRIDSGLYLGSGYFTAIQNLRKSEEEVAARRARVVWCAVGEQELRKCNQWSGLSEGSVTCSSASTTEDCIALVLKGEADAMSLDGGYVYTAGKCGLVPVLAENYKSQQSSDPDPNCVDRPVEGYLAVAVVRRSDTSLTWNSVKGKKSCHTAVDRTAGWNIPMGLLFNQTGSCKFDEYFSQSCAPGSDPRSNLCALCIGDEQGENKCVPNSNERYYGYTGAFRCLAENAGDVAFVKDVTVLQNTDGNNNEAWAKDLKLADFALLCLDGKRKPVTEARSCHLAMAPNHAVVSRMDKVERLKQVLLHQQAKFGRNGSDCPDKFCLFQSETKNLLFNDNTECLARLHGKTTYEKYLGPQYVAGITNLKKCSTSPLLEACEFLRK
Assay [4] deals with Laminin subunit alpha-1 (Homo sapiens) (UniProt P25391). The assay can be described thus: Binding affinity to biotin-labeled human recombinant laminin-1 at 10 ug/ml in pH 5.6 MES buffer by fluorescence microarray method.
Chain of Laminin subunit alpha-1 (Homo sapiens) (P25391 whole entry): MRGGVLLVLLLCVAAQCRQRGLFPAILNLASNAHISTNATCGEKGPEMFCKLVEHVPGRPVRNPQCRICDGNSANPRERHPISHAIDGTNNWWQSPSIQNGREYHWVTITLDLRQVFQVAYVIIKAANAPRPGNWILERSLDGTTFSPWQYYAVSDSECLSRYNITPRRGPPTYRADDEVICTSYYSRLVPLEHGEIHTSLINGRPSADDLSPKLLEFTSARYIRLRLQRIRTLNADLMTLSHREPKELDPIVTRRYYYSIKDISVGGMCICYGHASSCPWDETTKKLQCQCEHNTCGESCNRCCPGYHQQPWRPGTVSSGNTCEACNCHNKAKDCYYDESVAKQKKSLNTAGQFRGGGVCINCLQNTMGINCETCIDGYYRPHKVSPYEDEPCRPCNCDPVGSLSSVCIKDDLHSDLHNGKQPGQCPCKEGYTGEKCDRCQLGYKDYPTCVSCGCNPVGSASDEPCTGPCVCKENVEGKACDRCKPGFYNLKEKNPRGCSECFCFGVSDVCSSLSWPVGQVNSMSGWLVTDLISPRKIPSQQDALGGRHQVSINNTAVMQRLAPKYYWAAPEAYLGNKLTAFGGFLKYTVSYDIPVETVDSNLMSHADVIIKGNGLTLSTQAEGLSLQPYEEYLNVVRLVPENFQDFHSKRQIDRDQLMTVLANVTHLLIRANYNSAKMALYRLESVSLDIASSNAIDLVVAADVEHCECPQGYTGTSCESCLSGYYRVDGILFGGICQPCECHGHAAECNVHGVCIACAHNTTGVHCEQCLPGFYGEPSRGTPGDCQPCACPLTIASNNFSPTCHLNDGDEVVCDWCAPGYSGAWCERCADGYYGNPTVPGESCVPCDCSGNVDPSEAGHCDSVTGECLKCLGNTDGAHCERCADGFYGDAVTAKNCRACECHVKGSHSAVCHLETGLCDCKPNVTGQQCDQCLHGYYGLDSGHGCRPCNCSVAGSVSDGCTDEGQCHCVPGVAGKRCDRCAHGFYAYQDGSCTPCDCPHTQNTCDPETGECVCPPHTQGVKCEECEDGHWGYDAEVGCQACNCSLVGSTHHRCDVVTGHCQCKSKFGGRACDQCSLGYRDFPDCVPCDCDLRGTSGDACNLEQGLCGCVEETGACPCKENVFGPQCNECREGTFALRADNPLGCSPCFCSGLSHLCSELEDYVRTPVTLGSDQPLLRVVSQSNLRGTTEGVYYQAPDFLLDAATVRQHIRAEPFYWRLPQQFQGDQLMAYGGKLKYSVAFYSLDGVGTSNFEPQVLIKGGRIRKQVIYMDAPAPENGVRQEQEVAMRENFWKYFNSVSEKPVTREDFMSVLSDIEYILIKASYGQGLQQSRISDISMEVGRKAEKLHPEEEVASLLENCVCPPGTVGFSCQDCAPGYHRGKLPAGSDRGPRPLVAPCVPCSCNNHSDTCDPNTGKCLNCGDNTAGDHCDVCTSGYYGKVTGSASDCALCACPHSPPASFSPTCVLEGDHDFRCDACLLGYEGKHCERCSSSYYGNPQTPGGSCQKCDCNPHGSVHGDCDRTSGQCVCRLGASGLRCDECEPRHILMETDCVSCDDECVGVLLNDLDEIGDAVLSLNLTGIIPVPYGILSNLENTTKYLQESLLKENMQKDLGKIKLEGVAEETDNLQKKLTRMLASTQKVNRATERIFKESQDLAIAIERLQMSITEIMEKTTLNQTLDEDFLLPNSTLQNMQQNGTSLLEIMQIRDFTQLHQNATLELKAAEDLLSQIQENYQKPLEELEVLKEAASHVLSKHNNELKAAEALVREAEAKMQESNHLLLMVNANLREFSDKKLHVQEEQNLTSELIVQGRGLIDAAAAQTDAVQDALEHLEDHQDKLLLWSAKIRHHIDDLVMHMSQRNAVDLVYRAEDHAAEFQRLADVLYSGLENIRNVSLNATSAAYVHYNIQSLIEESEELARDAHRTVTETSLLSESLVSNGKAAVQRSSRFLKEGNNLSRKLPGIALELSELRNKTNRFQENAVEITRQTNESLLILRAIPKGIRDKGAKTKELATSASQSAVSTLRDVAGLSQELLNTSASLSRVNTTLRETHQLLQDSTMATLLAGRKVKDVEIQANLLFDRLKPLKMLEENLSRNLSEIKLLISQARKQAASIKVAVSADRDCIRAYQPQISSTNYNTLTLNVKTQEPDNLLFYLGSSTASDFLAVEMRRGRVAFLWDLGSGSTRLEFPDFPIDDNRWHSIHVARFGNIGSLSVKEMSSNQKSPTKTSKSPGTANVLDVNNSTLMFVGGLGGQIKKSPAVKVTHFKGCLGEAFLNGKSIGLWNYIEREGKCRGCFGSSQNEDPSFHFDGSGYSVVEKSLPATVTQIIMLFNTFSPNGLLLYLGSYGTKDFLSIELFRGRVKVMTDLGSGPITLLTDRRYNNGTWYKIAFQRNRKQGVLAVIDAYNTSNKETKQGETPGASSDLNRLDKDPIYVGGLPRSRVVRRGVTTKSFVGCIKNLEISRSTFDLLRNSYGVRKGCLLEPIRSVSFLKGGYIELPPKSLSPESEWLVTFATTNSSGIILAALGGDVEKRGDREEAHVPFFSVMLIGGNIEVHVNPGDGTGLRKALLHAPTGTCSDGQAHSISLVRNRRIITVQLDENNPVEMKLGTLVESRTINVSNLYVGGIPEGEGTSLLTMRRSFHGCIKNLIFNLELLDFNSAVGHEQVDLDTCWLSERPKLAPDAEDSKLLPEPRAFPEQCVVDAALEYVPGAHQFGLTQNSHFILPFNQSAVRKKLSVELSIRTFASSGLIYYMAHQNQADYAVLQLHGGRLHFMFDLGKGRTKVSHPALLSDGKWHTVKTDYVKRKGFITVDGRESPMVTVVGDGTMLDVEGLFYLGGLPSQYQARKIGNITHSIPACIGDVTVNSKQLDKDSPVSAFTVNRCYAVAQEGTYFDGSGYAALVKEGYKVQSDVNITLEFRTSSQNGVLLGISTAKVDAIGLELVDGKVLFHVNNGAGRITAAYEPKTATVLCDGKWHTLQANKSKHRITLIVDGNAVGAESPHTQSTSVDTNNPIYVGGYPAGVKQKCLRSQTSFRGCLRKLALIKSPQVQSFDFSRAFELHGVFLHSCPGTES
For assay [5], the target named is Lactotransferrin (Homo sapiens) (UniProt P02788). The assay can be described thus: Binding affinity to biotin-labeled lactoferrin (unknown origin) at 10 ug/ml in pH 5.6 MES buffer by fluorescence microarray method.
Assay [6] relates to Sambucus racemosa subsp. sieboldiana. Description: Binding affinity to biotin-labeled Sambucus sieboldiana agglutinin in pH 7.4 Tris buffer by fluorescence microarray method.
The species entered for assay [7] is Homo sapiens. Description: Binding affinity to biotin-labeled human recombinant laminin-2 at 10 ug/ml in pH 7.4 Tris buffer by fluorescence microarray method.
For the next assay, the system named is Canavalia ensiformis. Description: Binding affinity to biotin-labeled Canavalia ensiformis agglutinin in pH 7.4 Tris buffer by fluorescence microarray method.
A further assay deals with Erythrina crista-galli. The assay can be described thus: Binding affinity to biotin-labeled Erythrina crista-galli agglutinin in pH 7.4 Tris buffer by fluorescence microarray method.
The subject of the next assay is Datura stramonium. Description: Binding affinity to biotin-labeled Datura stramonium agglutinin in pH 7.4 Tris buffer by fluorescence microarray method.
The next assay relates to Maackia amurensis. Description: Binding affinity to biotin-labeled Maackia amurensis agglutinin in pH 7.4 Tris buffer by fluorescence microarray method.
The next assay has as its system Arachis hypogaea. The assay can be described thus: Binding affinity to biotin-labeled Arachis hypogaea agglutinin in pH 7.4 Tris buffer by fluorescence microarray method.
The target of assay [8] is Laminin subunit alpha-1 (Homo sapiens) (UniProt P25391). The assay can be described thus: Binding affinity to biotin-labeled human recombinant laminin-1 at 10 ug/ml in pH 7.4 Tris buffer by fluorescence microarray method.

On to `CC[C@H](C)[C@H](NC(=O)[C@H](C)NC(=O)CNC(=O)[C@H](CCCNC(=N)N)NC(=O)[C@@H](NC(=O)CCCC(C)=O)[C@@H](C)O)C(=O)N[C@H](C(=O)N[C@@H](CCC(N)=O)C(=O)N[C@H](C(=O)N1CCC[C@H]1C(=O)N[C@H](C(=O)N[C@@H](CC(C)C)C(=O)NCC(=O)N1CCC[C@H]1C(=O)N[C@H](C(=O)N[C@@H](CCC(N)=O)C(=O)N1CCC[C@H]1C(=O)N[C@H](C(=O)N[C@@H](CCCNC(=N)N)C(=O)N[C@H](C(N)=O)C(C)C)[C@@H](C)O)[C@@H](C)CC)[C@@H](C)O[C@H]1O[C@H](CO)[C@@H](O)[C@H](O)[C@@H]1O[C@@H]1O[C@H](CO)[C@@H](O[C@@H]2O[C@H](CO)[C@H](O)[C@H](O[C@]3(C(=O)O)C[C@H](O)[C@@H](NC(C)=O)[C@H]([C@H](O)[C@H](O)CO)O3)[C@H]2O)[C@H](O)[C@H]1NC(C)=O)[C@@H](C)O[C@H]1O[C@H](CO)[C@@H](O)[C@H](O)[C@@H]1O[C@@H]1O[C@H](CO)[C@@H](O[C@@H]2O[C@H](CO)[C@H](O)[C@H](O[C@]3(C(=O)O)C[C@H](O)[C@@H](NC(C)=O)[C@H]([C@H](O)[C@H](O)CO)O3)[C@H]2O)[C@H](O)[C@H]1NC(C)=O)[C@@H](C)CC` ({Hexanoyl(5-oxo)}-TRGAIIQT(X1)PT(X1)LGPIQPTRV-NH2), for which the result (in assay [1]; with Triticum aestivum; in the assay listed under Homo sapiens [2]; in assay [4]; in assay [5]; in assay [6]) was Active. In addition, the result (in the assay with Canavalia ensiformis; in the assay with Erythrina crista-galli; in the assay on Arachis hypogaea; in assay [8]) was Active. In addition, the outcome (in assay [3]; in the assay listed under Homo sapiens [7]; with Datura stramonium; in the assay with Maackia amurensis) was inactive.
Turning to `CC[C@H](C)[C@H](NC(=O)[C@H](C)NC(=O)CNC(=O)[C@H](CCCNC(=N)N)NC(=O)[C@@H](NC(=O)CCCC(C)=O)[C@@H](C)O)C(=O)N[C@H](C(=O)N[C@@H](CCC(N)=O)C(=O)N[C@H](C(=O)N1CCC[C@H]1C(=O)N[C@H](C(=O)N[C@@H](CC(C)C)C(=O)NCC(=O)N1CCC[C@H]1C(=O)N[C@H](C(=O)N[C@@H](CCC(N)=O)C(=O)N1CCC[C@H]1C(=O)N[C@H](C(=O)N[C@@H](CCCNC(=N)N)C(=O)N[C@H](C(N)=O)C(C)C)[C@@H](C)O[C@H]1O[C@H](CO)[C@@H](O)[C@H](O)[C@@H]1O[C@@H]1O[C@H](CO)[C@@H](O[C@@H]2O[C@H](CO)[C@H](O)[C@H](O[C@]3(C(=O)O)C[C@H](O)[C@@H](NC(C)=O)[C@H]([C@H](O)[C@H](O)CO)O3)[C@H]2O)[C@H](O)[C@H]1NC(C)=O)[C@@H](C)CC)[C@@H](C)O)[C@@H](C)O[C@H]1O[C@H](CO)[C@@H](O)[C@H](O)[C@@H]1O[C@@H]1O[C@H](CO)[C@@H](O[C@@H]2O[C@H](CO)[C@H](O)[C@H](O[C@]3(C(=O)O)C[C@H](O)[C@@H](NC(C)=O)[C@H]([C@H](O)[C@H](O)CO)O3)[C@H]2O)[C@H](O)[C@H]1NC(C)=O)[C@@H](C)CC` ({Hexanoyl(5-oxo)}-TRGAIIQT(X1)PTLGPIQPT(X1)RV-NH2), the outcome (in [1]; in the assay with Triticum aestivum; in the assay listed under Homo sapiens [2]; in [4]; in assay [5]; in assay [6]) was Active. For the same compound, the outcome (in the assay on Canavalia ensiformis; in the assay with Erythrina crista-galli; with Arachis hypogaea; in assay [8]) was Active. For the same compound, the outcome (in assay [3]; in the assay listed under Homo sapiens [7]; with Datura stramonium; in the assay with Maackia amurensis) was inactive.
Turning to `CC[C@H](C)[C@H](NC(=O)[C@H](C)NC(=O)CNC(=O)[C@H](CCCNC(=N)N)NC(=O)[C@@H](NC(=O)CCCC(C)=O)[C@@H](C)O)C(=O)N[C@H](C(=O)N[C@@H](CCC(N)=O)C(=O)N[C@H](C(=O)N1CCC[C@H]1C(=O)N[C@H](C(=O)N[C@@H](CC(C)C)C(=O)NCC(=O)N1CCC[C@H]1C(=O)N[C@H](C(=O)N[C@@H](CCC(N)=O)C(=O)N1CCC[C@H]1C(=O)N[C@H](C(=O)N[C@@H](CCCNC(=N)N)C(=O)N[C@H](C(N)=O)C(C)C)[C@@H](C)O)[C@@H](C)CC)[C@@H](C)O)[C@@H](C)O[C@H]1O[C@H](CO)[C@@H](O)[C@H](O)[C@@H]1O[C@@H]1O[C@H](CO)[C@@H](O[C@@H]2O[C@H](CO)[C@H](O)[C@H](O[C@]3(C(=O)O)C[C@H](O)[C@@H](NC(C)=O)[C@H]([C@H](O)[C@H](O)CO)O3)[C@H]2O)[C@H](O)[C@H]1NC(C)=O)[C@@H](C)CC` ({Hexanoyl(5-oxo)}-TRGAIIQT(X1)PTLGPIQPTRV-NH2), the result (in assay [1]; in the assay with Triticum aestivum; in the assay filed under Homo sapiens [2]; in [4]; in assay [5]; in assay [6]) was Active. Further, the result (in the assay with Canavalia ensiformis; with Erythrina crista-galli; in the assay with Arachis hypogaea; in [8]) was Active. Moreover, the result (in assay [3]; in the assay filed under Homo sapiens [7]; with Datura stramonium; in the assay with Maackia amurensis) was inactive.
In the case of `CC[C@H](C)[C@H](NC(=O)[C@H](C)NC(=O)CNC(=O)[C@H](CCCNC(=N)N)NC(=O)[C@@H](NC(=O)CCCC(C)=O)[C@@H](C)O)C(=O)N[C@H](C(=O)N[C@@H](CCC(N)=O)C(=O)N[C@H](C(=O)N1CCC[C@H]1C(=O)N[C@H](C(=O)N[C@@H](CC(C)C)C(=O)NCC(=O)N1CCC[C@H]1C(=O)N[C@H](C(=O)N[C@@H](CCC(N)=O)C(=O)N1CCC[C@H]1C(=O)N[C@H](C(=O)N[C@@H](CCCNC(=N)N)C(=O)N[C@H](C(N)=O)C(C)C)[C@@H](C)O[C@H]1O[C@H](CO)[C@@H](O)[C@H](O)[C@@H]1O[C@@H]1O[C@H](CO)[C@@H](O[C@@H]2O[C@H](CO)[C@H](O)[C@H](O)[C@H]2O)[C@H](O)[C@H]1NC(C)=O)[C@@H](C)CC)[C@@H](C)O[C@H]1O[C@H](CO)[C@@H](O)[C@H](O)[C@@H]1O[C@@H]1O[C@H](CO)[C@@H](O[C@@H]2O[C@H](CO)[C@H](O)[C@H](O)[C@H]2O)[C@H](O)[C@H]1NC(C)=O)[C@@H](C)O[C@H]1O[C@H](CO)[C@@H](O)[C@H](O)[C@@H]1O[C@@H]1O[C@H](CO)[C@@H](O[C@@H]2O[C@H](CO)[C@H](O)[C@H](O)[C@H]2O)[C@H](O)[C@H]1NC(C)=O)[C@@H](C)CC` ({Hexanoyl(5-oxo)}-TRGAIIQT(X2)PT(X2)LGPIQPT(X2)RV-NH2), the result (in [1]; with Triticum aestivum; in the assay filed under Homo sapiens [2]; in assay [4]; in assay [5]; in [6]) was Active. The outcome (in the assay on Canavalia ensiformis; in the assay with Erythrina crista-galli; with Arachis hypogaea; in assay [8]) was Active. In addition, the outcome (in [3]; in the assay listed under Homo sapiens [7]; in the assay on Datura stramonium; in the assay with Maackia amurensis) was inactive.
On to `CC[C@H](C)[C@H](NC(=O)[C@H](C)NC(=O)CNC(=O)[C@H](CCCNC(=N)N)NC(=O)[C@@H](NC(=O)CCCC(C)=O)[C@@H](C)O)C(=O)N[C@H](C(=O)N[C@@H](CCC(N)=O)C(=O)N[C@H](C(=O)N1CCC[C@H]1C(=O)N[C@H](C(=O)N[C@@H](CC(C)C)C(=O)NCC(=O)N1CCC[C@H]1C(=O)N[C@H](C(=O)N[C@@H](CCC(N)=O)C(=O)N1CCC[C@H]1C(=O)N[C@H](C(=O)N[C@@H](CCCNC(=N)N)C(=O)N[C@H](C(N)=O)C(C)C)[C@@H](C)O)[C@@H](C)CC)[C@@H](C)O[C@H]1O[C@H](CO)[C@@H](O)[C@H](O)[C@@H]1O[C@@H]1O[C@H](CO)[C@@H](O[C@@H]2O[C@H](CO)[C@H](O)[C@H](O)[C@H]2O)[C@H](O)[C@H]1NC(C)=O)[C@@H](C)O[C@H]1O[C@H](CO)[C@@H](O)[C@H](O)[C@@H]1O[C@@H]1O[C@H](CO)[C@@H](O[C@@H]2O[C@H](CO)[C@H](O)[C@H](O)[C@H]2O)[C@H](O)[C@H]1NC(C)=O)[C@@H](C)CC` ({Hexanoyl(5-oxo)}-TRGAIIQT(X2)PT(X2)LGPIQPTRV-NH2), for which the result (in assay [1]; with Triticum aestivum; in the assay listed under Homo sapiens [2]; in assay [4]; in [5]; in assay [6]) was Active. Moreover, the result (with Canavalia ensiformis; in the assay on Erythrina crista-galli; in the assay on Arachis hypogaea; in assay [8]) was Active. Further, the result (in [3]; in the assay listed under Homo sapiens [7]; in the assay with Datura stramonium; in the assay on Maackia amurensis) was inactive.
